Counter-ions that a name gives are not always drawn. Like-named read-outs stand apart in the source and are kept apart here.

Consider 18 molecules from patent publication US20250144067A1, “PERSONALIZED STARVATION THERAPY FOR CANCER” (Faeth Therapeutics, Inc., priority 2021, published 2025).

The subject of assay [1] is NCI-H292 lung cancer cells. Kind of assay: FDA drug screening, complete media vs cholesterol-free media without statin (TABLE 1). The assay is classed as cell-based, human.
In assay [2] the test system is NCI-H292 lung cancer cells. In words: FDA drug screening, complete media vs cholesterol-free media with simvastatin (TABLE 2). The assay is classed as cell-based, human.
The mark [3] stands for this setting: NCI-H292 cells, cholesterol-free media without statin.
Where [4] appears, read: complete vs cholesterol-free media, greater than 0 enhanced anti-cancer activity, about 0 neutral, below 0 antagonists.
Setting [5] is: NCI-H292 cells, cholesterol-free media with simvastatin 0.04 μM, cell growth value in FDA drug screen.
[6] abbreviates: NCI-H292 cells, complete media, cell growth value in FDA drug screen.
[7] abbreviates: complete media minus cholesterol-free media + simvastatin, >0 enhanced anti-cancer activity, about 0 neutral, <0 antagonist.
The mark [8] stands for this setting: NCI-H292 cells, cholesterol-free media without statin, FDA drug library screen.
Where [9] appears, read: NCI-H292 cells, complete media, FDA drug library screen.
[10] abbreviates: complete vs cholesterol-free media, >0 enhanced anti-cancer activity, about 0 neutral, <0 antagonist.
Where [11] appears, read: NCI-H292 cells, drug in cholesterol-free media with simvastatin 0.04 μM.
[12] abbreviates: NCI-H292 cells, drug in complete media.
Setting [13] is: complete media vs cholesterol-free media + simvastatin (0.04 μM), >0 enhanced anti-cancer activity, about 0 neutral, <0 antagonist.
The mark [14] stands for this setting: NCI-H292 cells, FDA drug library screen, cholesterol-free media with simvastatin 0.04 μM.
[15] abbreviates: NCI-H292 cells, FDA drug library screen, complete media.
Setting [16] is: Complete minus Cholesterol-free, greater than 0 enhanced anti-cancer activity, about 0 neutral, below 0 antagonist.
Where [17] appears, read: NCI-H292 cells, FDA drug library screen, cholesterol-free media without statin.
Setting [18] is: Complete minus Cholesterol-free, >0 enhanced anti-cancer activity, about 0 neutral, <0 antagonist.
[19] abbreviates: NCI-H292 cells, FDA library drug in cholesterol-free media with simvastatin 0.04 μM.
Where [20] appears, read: NCI-H292 cells, FDA library drug in complete media.
Setting [21] is: NCI-H292 cells in cholesterol-free media without statin.
The mark [22] stands for this setting: NCI-H292 cells in complete media.
The mark [23] stands for this setting: Complete minus Cholesterol-free, […].
Setting [24] is: complete media vs cholesterol-free media + simvastatin (0.04 μM), […].
[25] abbreviates: NCI-H292 cells, cholesterol-free media with simvastatin 0.04 μM, FDA drug library screen (TABLE 2).
Where [26] appears, read: NCI-H292 cells, complete media, FDA drug library screen (TABLE 2).
Setting [27] is: complete media minus cholesterol-free media + simvastatin (0.04 μM), >0 enhanced anti-cancer activity, about 0 neutral, <0 antagonist.

In assay [1] (setting [3]), `CCCCCCCCc1ccc(CCC(N)(CO)CO)cc1` [Fingolimod (hydrochloride)] returned a Cholesterol-free of 1.335. The molecule also showed a Complete in assay [1] (NCI-H292 cells, complete media) of 0.8744. Besides, the Difference in assay [1] (setting [4]) is recorded as −0.46; in assay [2] (setting [7]), 0.04. In addition, the “Cholesterol-free media + simvastatin (0.04 μM)” value in assay [2] (setting [5]) was found to be 0.9867. In assay [2] (setting [6]), the “Complete Media” value is on record as 1.023.

`O=C1OC(OC(=O)c2cccnc2Nc2cccc(C(F)(F)F)c2)c2ccccc21` (centres unmarked) [Talniflumate]: in assay [1] (setting [8]), the Cholesterol-free stood at 0.679. Further, the Complete in assay [1] (setting [9]) was 1.267. Further, the Difference in assay [1] (setting [10]) was 0.59; in assay [2] (setting [13]), −0.25. Besides, the “Cholesterol-free media + simvastatin (0.04 μM)” value in assay [2] (setting [11]) was determined as 1.554. In addition, in assay [2] (setting [12]), the “Complete Media” value came to 1.302.

`C/C=C/C1=C(C(=O)O)N2C(=O)[C@@H](NC(=O)[C@H](N)c3ccc(O)cc3)[C@H]2SC1.O` [Cefprozil (monohydrate)]: in assay [1] (setting [3]), the Cholesterol-free worked out at 1.442. Also, the Complete in assay [1] (NCI-H292 cells, complete media) amounted to 1.109. In addition, the Difference in assay [1] (setting [4]) is −0.33; in assay [2] (setting [7]) it was 0.24. The “Cholesterol-free media + simvastatin (0.04 μM)” value in assay [2] (setting [14]) was determined as 0.9773. The “Complete Media” value in assay [2] (setting [15]) turned out to be 1.216.

Take Delavirdine (mesylate): the values for the Difference in assay [1] (setting [16]) and in assay [2] (setting [7]) were −0.10 and 0.08, respectively. In assay [1] (setting [17]), the Cholesterol-free is 1.071. In addition, the Complete in assay [1] (setting [15]) is listed as 0.9729. For the same molecule, the “Cholesterol-free media + simvastatin (0.04 μM)” value in assay [2] (setting [5]) is 0.9532.

In the case of `COc1ccc2cccc(CCNC(C)=O)c2c1` [Agomelatine (hydrochloride)], the Difference in assay [1] (setting [18]) was 0.00; in assay [2] (setting [13]) it was −0.36. The molecule further gave a Cholesterol-free in assay [1] (setting [8]) of 0.7477. In assay [1] (setting [9]), this molecule returned a Complete of 0.7483. The “Cholesterol-free media + simvastatin (0.04 μM)” value in assay [2] (setting [19]) is recorded as 1.126. In addition, the “Complete Media” value in assay [2] (setting [20]) is listed as 0.7656.

For the molecule `C=CCN1C[C@H](C(=O)N(CCCN(C)C)C(=O)NCC)C[C@@H]2c3cccc4[nH]cc(c34)C[C@H]21` [Cabergoline], the Difference in assay [1] (Complete minus Cholesterol-free, greater than 0 enhanced anti-cancer activity, about 0 neutral, below 0 antagonists) is on record as −0.59; in assay [2] (setting [13]), −0.24. Further, in assay [1] (setting [21]), the Cholesterol-free is 1.769. This molecule gave a Complete in assay [1] (setting [22]) of 1.184. The “Cholesterol-free media + simvastatin (0.04 μM)” value in assay [2] (setting [11]) was 1.138. Also, in assay [2] (setting [12]), the “Complete Media” value is 0.8998.

Consider `C[C@@H]1C/C=C/C=C/C=C/C=C/[C@H](O[C@@H]2O[C@H](C)[C@@H](O)[C@H](N)[C@@H]2O)C[C@@H]2O[C@](O)(C[C@@H](O)C[C@H]3O[C@@H]3/C=C/C(=O)O1)C[C@H](O)[C@H]2C(=O)O` [Natamycin], for which the Difference in assay [1] (setting [16]) is recorded as −0.07; in assay [2] (setting [13]), −0.09. The molecule also returned a Cholesterol-free in assay [1] (setting [17]) of 1.061. This molecule also showed a Complete in assay [1] (setting [15]) of 0.9893. In addition, the “Cholesterol-free media + simvastatin (0.04 μM)” value in assay [2] (setting [14]) is 1.218. Besides, the “Complete Media” value in assay [2] (setting [15]) is listed as 1.127.

Turning to Masitinib (mesylate), the figures for the Difference in assay [1] (setting [16]) and in assay [2] (setting [13]) were −0.14 and −0.08, respectively. Besides, in assay [1] (setting [17]), the Cholesterol-free worked out at 1.027. In assay [1] (setting [15]), this molecule came in with a Complete of 0.8899. Also, the “Cholesterol-free media + simvastatin (0.04 μM)” value in assay [2] (setting [14]) worked out at 1.086. Moreover, in assay [2] (setting [15]), the “Complete Media” value was found to be 1.002.

Molecule `CCN1CCN(Cc2ccc(Nc3ncc(F)c(-c4cc(F)c5nc(C)n(C(C)C)c5c4)n3)nc2)CC1` [Abemaciclib] came in with a Cholesterol-free in assay [1] (setting [8]) of 0.7212. The molecule further came in with a Complete in assay [1] (setting [9]) of 0.8498. Moreover, the Difference in assay [1] (setting [10]) is listed as 0.13; in assay [2] (setting [13]), −0.34. Besides, the “Cholesterol-free media + simvastatin (0.04 μM)” value in assay [2] (setting [19]) worked out at 1.011. For the same molecule, in assay [2] (setting [20]), the “Complete Media” value is reported as 0.6686.

With `N=C(N)c1ccc(OCCCCCOc2ccc(C(=N)N)cc2)cc1.O=S(=O)(O)CCO.O=S(=O)(O)CCO` [Pentamidine (isethionate)], the Difference in assay [1] (setting [16]) is given as −0.17; in assay [2] (setting [7]) it was 0.13. Besides, the Cholesterol-free in assay [1] (setting [17]) is recorded as 0.6432. Besides, in assay [1] (setting [15]), the Complete was determined as 0.4688. Moreover, the “Cholesterol-free media + simvastatin (0.04 μM)” value in assay [2] (setting [5]) was determined as 0.3285. The “Complete Media” value in assay [2] (setting [6]) was found to be 0.4548.

As for `CN1[C@@H]2CC[C@H]1C[C@@H](OC(=O)[C@H](CO)c1ccccc1)C2` [L-Hyoscyamine], the Difference in assay [1] (setting [23]) is reported as −0.26; in assay [2] (setting [24]) it was −0.16. The Cholesterol-free in assay [1] (setting [3]) is given as 1.23. The Complete in assay [1] (NCI-H292 cells, complete media) was determined as 0.9714. The “Cholesterol-free media + simvastatin (0.04 μM)” value in assay [2] (setting [11]) is on record as 1.192. Also, in assay [2] (setting [12]), the “Complete Media” value amounted to 1.027.

With `CC(=O)OCC(CCn1cnc2cnc(N)nc21)COC(C)=O` [Famciclovir], the Difference in assay [1] (setting [18]) is given as −0.27; in assay [2] (setting [13]) it was −0.44. This molecule gave a Cholesterol-free in assay [1] (setting [3]) of 1.022. The same molecule returned a Complete in assay [1] (NCI-H292 cells, complete media) of 0.7509. In assay [2] (setting [19]), the “Cholesterol-free media + simvastatin (0.04 μM)” value is given as 1.597. Besides, in assay [2] (setting [20]), the “Complete Media” value stood at 1.161.

`Cc1nccn1CC1CCc2c(c3ccccc3n2C)C1=O` (centres unmarked) [Ondansetron]: the Difference in assay [1] (setting [18]) is −0.05; in assay [2] (setting [27]), −0.07. The Cholesterol-free in assay [1] (setting [8]) was 1.168. Also, in assay [1] (setting [9]), the Complete is recorded as 1.123. The “Cholesterol-free media + simvastatin (0.04 μM)” value in assay [2] (setting [25]) is listed as 1.019. The “Complete Media” value in assay [2] (setting [26]) is given as 0.948.

As for `CC1(C)S[C@@H]2[C@H](NC(=O)[C@H](N)c3ccc(O)cc3)C(=O)N2[C@H]1C(=O)[O-].[Na+]` [Amoxicillin (sodium)], the Difference in assay [1] (setting [16]) is on record as −0.16; in assay [2] (setting [13]) it was −0.18. The same molecule showed a Cholesterol-free in assay [1] (setting [17]) of 0.8965. In assay [1] (setting [15]), the Complete is given as 0.7329. For the same molecule, in assay [2] (setting [11]), the “Cholesterol-free media + simvastatin (0.04 μM)” value is recorded as 0.9358. In addition, the “Complete Media” value in assay [2] (setting [12]) was found to be 0.759.

For the molecule `C[N+](C)(C)CCCCCCCCCC[N+](C)(C)C.[Br-].[Br-]` [Decamethonium (Bromide)], in assay [1], the Cholesterol-free was determined as 1.121, the Complete turned out to be 0.9062 and the Difference is −0.21. Besides, in assay [2], the “Cholesterol-free media + simvastatin (0.04 μM)” value is listed as 1.129, the “Complete Media” value is reported as 0.9457 and the Difference is reported as −0.18.

`Cc1nc(NC(=O)N2CCC[C@H]2C(N)=O)sc1-c1ccnc(C(C)(C)C(F)(F)F)c1` [Alpelisib]: the Difference in assay [1] (setting [18]) came to 0.04; in assay [2] (setting [27]), 0.00. In assay [1] (setting [8]), this molecule yielded a Cholesterol-free of 0.497. This molecule also displayed a Complete in assay [1] (setting [9]) of 0.5335. The “Cholesterol-free media + simvastatin (0.04 μM)” value in assay [2] (setting [25]) is recorded as 0.5514. Moreover, the “Complete Media” value in assay [2] (setting [26]) was determined as 0.5502.

The molecule `CN1Cc2c(Cl)cc(Cl)cc2[C@H](c2cccc(S(=O)(=O)NCCOCCOCCNC(=O)NCCCCNC(=O)NCCOCCOCCNS(=O)(=O)c3cccc([C@@H]4CN(C)Cc5c(Cl)cc(Cl)cc54)c3)c2)C1` [Tenapanor] showed a Cholesterol-free in assay [1] (setting [8]) of 0.6884. The molecule further registered a Complete in assay [1] (setting [9]) of 0.8628. Besides, the Difference turned out to be 0.17 in assay [1] (setting [10]) and 0.02 in assay [2] (setting [7]). Further, in assay [2] (setting [5]), the “Cholesterol-free media + simvastatin (0.04 μM)” value is reported as 1.602. For the same molecule, the “Complete Media” value in assay [2] (setting [6]) was 1.62.

As to `NC[C@H](CC(=O)O)c1ccc(Cl)cc1` [(R)-Baclofen], the Difference in assay [1] (setting [23]) was −0.91; in assay [2] (setting [24]), −0.13. In addition, in assay [1] (setting [21]), the Cholesterol-free is on record as 2.052. The molecule further came in with a Complete in assay [1] (setting [22]) of 1.14. In assay [2] (setting [14]), the “Cholesterol-free media + simvastatin (0.04 μM)” value stood at 0.9854. Moreover, the “Complete Media” value in assay [2] (setting [15]) was found to be 0.8585.
